# What was measured:
# [1] = Long-term stability of nicotinamide ribose solution after pH adjustment with sodium bicarbonate; format: physicochemical; conditions: 2-4° C., storage time 45 days
# Source text: (§1) The results of various parameters in the preparation of the intermediate product nicotinamide ribose solution are shown in Table 1 to Table 5.
# [2] = Long-term stability of nicotinamide ribose solution after pH adjustment with hydrochloric acid; format: physicochemical; conditions: storage temperature 0-4° C., storage time 45 days
# Source text: as §1
substance,measurement,setting,value
nicotinamide ribose [nicotinamide ribose solution],Stability (degradation),[1]; pH 4 (sodium bicarbonate),2.4%
same,Stability (degradation),[1]; pH 5 (sodium bicarbonate),3.7%
same,Stability (degradation),[2]; pH 4 (hydrochloric acid),1.3%
same,Stability (degradation),[2]; pH 5 (hydrochloric acid),2.1%

# Reference: US12227534B2, “Method for preparing nicotinamide mononucleotide by using nicotinamide as raw material” (BONTAC BIO-ENGINEERING(SHENZHEN) CO., LTD., priority 2020, dated 2025)
